Measured values published in ChEMBL document CHEMBL1156583, “Zwitterionic uracil derivatives as potent GnRH receptor antagonists with improved pharmaceutical properties” (Bioorg Med Chem Lett, 2008).

Key:
[1] = molecular target: T1, Gonadotropin-releasing hormone receptor (Homo sapiens, UniProt P30968); assay: Displacement of [125I]tyr5,D-Leu6,NMeLeu7-GnRH from human cloned GnRH receptor expressed in RBL cells; format: cell-based
T1 sequence (P30968 whole entry): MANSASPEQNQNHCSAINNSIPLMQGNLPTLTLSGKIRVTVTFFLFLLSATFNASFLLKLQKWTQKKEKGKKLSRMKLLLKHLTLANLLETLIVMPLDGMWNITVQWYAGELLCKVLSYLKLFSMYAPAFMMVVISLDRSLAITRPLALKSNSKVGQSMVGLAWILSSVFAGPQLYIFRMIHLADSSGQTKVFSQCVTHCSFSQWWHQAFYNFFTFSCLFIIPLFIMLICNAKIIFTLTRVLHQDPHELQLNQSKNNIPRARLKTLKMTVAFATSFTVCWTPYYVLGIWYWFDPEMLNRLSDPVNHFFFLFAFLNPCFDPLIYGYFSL

[2] = molecular target: T1, Gonadotropin-releasing hormone receptor; assay: Displacement of [125I]Pro-N-Et-GnRH from human cloned GnRH receptor expressed in HEK cells; format: cell-based, HEK293
[3] = molecular target: T1, Gonadotropin-releasing hormone receptor; assay: Antagonist activity at human GnRH receptor expressed in RBL cells assessed as inhibition of GnRH-stimulated [3H]inositol phosphate hydrolysis by whole cell assay; format: functional, cell-based
[4] = Permeability from apical to basolateral side of human Caco-2 cell membrane; format: ADME, cell-based
[5] = Oral bioavailability in Sprague-Dawley rat at 10 mg/kg; format: ADME, organism-based; settings: in vivo
[6] = Clearance in Sprague-Dawley rat at 2.5 mg/kg, iv; format: ADME, organism-based; set-up: dose 2.5 mg/kg, route intravenous; settings: in vivo
[7] = Half life in Sprague-Dawley rat at 2.5 mg/kg, iv; format: ADME, organism-based; set-up: dose 2.5 mg/kg, route intravenous; settings: in vivo
Cytochrome P450 3A4 = Cytochrome P450 3A4 (Homo sapiens, UniProt P08684); assay: Inhibition of recombinant CYP3A4 by microtiter plate-based fluorimetric assay; format: ADME
CYP3A4 = CYP3A4 (Homo sapiens, UniProt P08684); assay: Inhibition of recombinant CYP3A4 at 200 uM by microtiter plate-based fluorimetric assay; format: ADME
CYP3A4, sequence (P08684 whole entry): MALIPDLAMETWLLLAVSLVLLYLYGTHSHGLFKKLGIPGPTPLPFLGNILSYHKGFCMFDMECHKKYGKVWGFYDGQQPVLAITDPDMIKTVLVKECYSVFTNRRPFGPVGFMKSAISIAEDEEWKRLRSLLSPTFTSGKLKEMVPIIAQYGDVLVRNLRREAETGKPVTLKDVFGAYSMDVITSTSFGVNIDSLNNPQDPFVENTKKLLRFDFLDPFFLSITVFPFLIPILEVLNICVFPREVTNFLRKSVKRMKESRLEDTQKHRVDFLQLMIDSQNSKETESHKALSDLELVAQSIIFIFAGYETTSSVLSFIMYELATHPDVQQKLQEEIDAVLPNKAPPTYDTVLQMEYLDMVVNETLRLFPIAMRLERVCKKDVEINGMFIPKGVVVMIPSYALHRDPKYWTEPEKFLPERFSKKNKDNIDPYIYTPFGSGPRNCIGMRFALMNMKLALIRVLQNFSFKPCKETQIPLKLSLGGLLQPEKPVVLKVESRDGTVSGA

Cytochrome P450 3A4, sequence (P08684 whole entry): as above

Row | SMILES | Ki [1] [µM] | Ki [2] [µM] | IC50 (Cytochrome P450 3A4) [µM] | other results
1 | N[C@@H](Cn1c(=O)c(-c2cccc(OCCCCCC(=O)O)c2F)cn(Cc2c(F)cccc2C(F)(F)F)c1=O)c1ccccc1 |  | 0.033 | 25 | 
2 | CN[C@@H](Cn1c(=O)c(-c2cccc(OCCCCC(=O)O)c2F)c(C)n(Cc2c(F)cccc2C(F)(F)F)c1=O)c1ccccc1 |  | 0.0012 | 13 | Papp A→B [4]: 12 nm/s; bioavailability [5]: 13%; clearance [6]: 3 L/h/kg; half-life [7]: 5.1 h
3 | N[C@@H](Cn1c(=O)c(-c2cccc(OCCCCC(=O)O)c2F)cn(Cc2c(F)cccc2C(F)(F)F)c1=O)c1ccccc1 |  | 0.034 | 36 | 
4 | Cc1c(-c2cccc(OCC(=O)O)c2F)c(=O)n(C[C@H](N)c2ccccc2)c(=O)n1Cc1c(F)cccc1C(F)(F)F | 0.052 |  |  | inhibition at 200 µM (CYP3A4): 16%
5 | CN[C@@H](Cn1c(=O)c(-c2cccc(OCCN(C)CC(=O)O)c2F)c(C)n(Cc2c(F)cccc2C(F)(F)F)c1=O)c1ccccc1 | 0.098 |  |  | 
6 | Cc1c(-c2cccc(OCCCCC(=O)O)c2F)c(=O)n(C[C@@H](c2ccccc2)N(C)C)c(=O)n1Cc1c(F)cccc1C(F)(F)F |  | 0.015 | 42 | Papp A→B [4]: 170 nm/s
7 | CN[C@@H](Cn1c(=O)c(-c2cccc(OCCCNCC(=O)O)c2F)c(C)n(Cc2c(F)cccc2C(F)(F)F)c1=O)c1ccccc1 | 0.155 |  | 33 | 
8 | Cc1c(-c2cccc(OCCCCC(=O)O)c2)c(=O)n(C[C@H](N)c2ccccc2)c(=O)n1Cc1c(F)cccc1C(F)(F)F |  | 0.0041 | 22 | IC50 [3]: 0.026 µM; Papp A→B [4]: 1 nm/s; bioavailability [5]: 1.1%; clearance [6]: 0.45 L/h/kg; half-life [7]: 10 h

Continued, in another order:

Row | Ki [1] [µM] | Ki [2] [µM] | IC50 (Cytochrome P450 3A4) [µM] | SMILES | other results
9 | 0.001 | 0.0012 |  | Cc1c(-c2cccc(OCCCCC(=O)O)c2F)c(=O)n(C[C@H](N)c2ccccc2)c(=O)n1Cc1c(F)cccc1C(F)(F)F | IC50 [3]: 0.0026 µM; Papp A→B [4]: 1 nm/s; bioavailability [5]: 6.6%; clearance [6]: 0.84 L/h/kg; half-life [7]: 6.6 h
10 | 0.0101 |  |  | Cc1c(-c2cccc(OCCC(=O)O)c2F)c(=O)n(C[C@H](N)c2ccccc2)c(=O)n1Cc1c(F)cccc1C(F)(F)F | 
11 | 0.029 |  | 22 | CN[C@@H](Cn1c(=O)c(-c2cccc(OCCC(C)(C)CC(=O)O)c2F)c(C)n(Cc2c(F)cccc2C(F)(F)F)c1=O)c1ccccc1 | 
12 | 0.027 |  |  | CN[C@@H](Cn1c(=O)c(-c2cccc(OCCNCC(=O)O)c2F)c(C)n(Cc2c(F)cccc2C(F)(F)F)c1=O)c1ccccc1 | 
13 | 0.0012 | 0.0013 | 8.2 | Cc1c(-c2cccc(OCCCCCC(=O)O)c2F)c(=O)n(C[C@H](N)c2ccccc2)c(=O)n1Cc1c(F)cccc1C(F)(F)F | IC50 [3]: 0.0006 µM; bioavailability [5]: 3.7%; clearance [6]: 1.26 L/h/kg; half-life [7]: 2.9 h
14 | 0.0093 |  | 10 | CN[C@@H](Cn1c(=O)c(-c2cccc(OCCOCC(=O)O)c2F)c(C)n(Cc2c(F)cccc2C(F)(F)F)c1=O)c1ccccc1 | 
15 | 0.0047 |  |  | Cc1c(-c2cccc(OCCCC(=O)O)c2F)c(=O)n(C[C@H](N)c2ccccc2)c(=O)n1Cc1c(F)cccc1C(F)(F)F | inhibition at 200 µM (CYP3A4): 21%
16 | 0.038 |  | 22 | CN[C@@H](Cn1c(=O)c(-c2cccc(OCCCOCC(=O)O)c2F)c(C)n(Cc2c(F)cccc2C(F)(F)F)c1=O)c1ccccc1 | 
17 | 0.0011 | 0.0021 |  | Cc1c(-c2cccc(OCCCCCC(=O)O)c2)c(=O)n(C[C@H](N)c2ccccc2)c(=O)n1Cc1c(F)cccc1C(F)(F)F | IC50 [3]: 0.0028 µM; bioavailability [5]: 4.8%; clearance [6]: 2.16 L/h/kg; half-life [7]: 4.9 h
18 | 0.0075 |  |  | Cc1c(-c2cccc(OCCCC(=O)O)c2)c(=O)n(C[C@H](N)c2ccccc2)c(=O)n1Cc1c(F)cccc1C(F)(F)F | IC50 [3]: 0.023 µM
19 | 0.035 |  |  | CN[C@@H](Cn1c(=O)c(-c2cccc(OCCCN(C)CC(=O)O)c2F)c(C)n(Cc2c(F)cccc2C(F)(F)F)c1=O)c1ccccc1 | 
